Values after ≈ are worked out from the molar mass of the structure shown. Read-outs that look alike come from different tables or passages of the source.
Columns and labels:
[1] = tested on: Pseudomonas aeruginosa UI-18: Wild-type (PA-7); test: MIC determination (CLSI), PA-7; type: cell-based; conditions: for MIC: Pseudomonas aeruginosa
Outline: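 Wild-type P. aeruginosa UI-18 tested for minimum inhibitory concentration. Broth/agar dilution following CLSI standards (M7-A7, M100-S18).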

[2] = biological target: Pseudomonas aeruginosa LpxC enzyme (Pseudomonas aeruginosa (strain ATCC 15692 / DSM 22644 / CIP 104116 / JCM 14847 / LMG 12228 / 1C / PRS 101 / PAO1), UniProt P47205); test: IC50 Assay, LpxC Enzyme from P. aeruginosa (PA LpxC Enzyme IC50); type: biochemical
Description: In order to assess the compounds biological activity, selected in-vitro assays were conducted on selected compounds. One of the assays measured the compounds ability to disrupt the synthesis of lipopolysaccharide, LPS, which is a component of the outer membrane of Gram-negative bacteria. Disruption of this synthesis is lethal to the bacteria. The assay determined the compound's ability to inhibit LpxC, which is the first enzyme in the biosynthetic pathway for LPS (measured as IC50). Additionally, MICs (minimal inhibitory concentrations) were determined for several bacteria. The specific protocols are described below:
A) IC50 Assay, LpxC Enzyme from P. aeruginosa (Labled as PA LpxC Enzyme IC50
At the end of 1 hour, 5 ul of 1N HCl was added to stop the enzyme reaction; the plates were centrifuged, and then processed with the BioTrove Rapidfire HTMS Mass Spectrometry System. A no-enzyme control was used in calculating the IC50 values from the percent conversion values.

[3] = tested on: Acinetobacter baumanii/haemolyticus: Multidrug-resistant clinical isolate (AB-3167); test: MIC determination (CLSI), AB-3167; type: cell-based; conditions: for MIC: Acinetobacter baumannii
Outline: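 Multidrug-resistant clinical isolate AB-3167 (A. baumannii/haemolyticus) tested for minimum inhibitory concentration following CLSI dilution susceptibility standards M7-A7 and M100-S18.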

[4] = tested on: Klebsiella pneumoniae: Ciprofloxacin-resistant isolate, ESBL, clinical isolate (KP-3700); test: MIC determination (CLSI), KP-3700; type: cell-based
Outline: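 Strain KP-3700, a clinical isolate producing extended-spectrum β-lactamases and resistant to ciprofloxacin, was tested. Minimum inhibitory concentrations determined via CLSI dilution methodology (M7-A7; M100-S18).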

[5] = tested on: Escherichia coli EC-1: VOGEL, mouse virulent; test: MIC determination (CLSI), EC-1; type: cell-based; conditions: for MIC: Escherichia coli
Outline: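 E. coli Vogel, a mouse-virulent strain (EC-1), was tested. MICs were set by dilution susceptibility testing per CLSI standards M7-A7/M100-S18.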

[6] = Table 3, read-out: PA LpxC enzyeme IC^50
[7] = Pseudomonas aeruginosa UI-18 (PA-7)
[8] = P. aeruginosa LpxC enzyme, read-out: PA LpxC enzyeme IC50
[9] = Acinetobacter baumanii/haemolyticus AB-3167
[10] = Pseudomonas aeruginosa UI-18 wild-type PA-7
[11] = Acinetobacter baumanii/haemolyticus multidrug-resistant clinical isolate AB-3167
[12] = Escherichia coli EC-1 VOGEL, mouse virulent

## CCc1ccccc1COc1ccc(CCC(C)(C(=O)NO)S(C)(=O)=O)cc1 (centres unmarked) [Example 306, 4-{4-[(2-ethylbenzyl)oxy]phenyl}-N-hydroxy-2-methyl-2-(methylsulfonyl)butanamide]
[1]; Table 3, read-out: PA-7 MIC
  MIC: 16 µg/mL (≈ 39.5 µM)
[2]; [6]
  IC50: 0.813 nM
[3]; Table 3, read-out: AB-3167 MIC
  MIC: 16 µg/mL (≈ 39.5 µM)
[4]
  KP-3700 MIC: 32 mg/L
[5]; read-out: EC-1 MIC
  MIC: 8 µg/mL (≈ 19.7 µM)

## CC(CCc1ccc(-c2ccc(-c3cc(CO)no3)cc2)cc1)(C(=O)NO)S(C)(=O)=O (centres unmarked) [Example 9, N-Hydroxy-4-{4′-[3-(hydroxymethyl)isoxazol-5-yl]biphenyl-4-yl}-2-methyl-2-(methylsulfonyl)butanamide]
[1]; Table 1, MIC, read-out: PA-7 (MIC)
  MIC: 2 µg/mL (≈ 4.5 µM)
[2]; Table 1, read-out: PA LpxC enzyeme IC50
  IC50: 0.32 nM
[3]; Table 1, MIC, read-out: AB-3167 (MIC)
  MIC: 32 µg/mL (≈ 72 µM)
[4]
  KP-3700 MIC: 4 mg/L
[5]; read-out: EC-1: (MIC)
  MIC: 0.125 µg/mL (≈ 0.281 µM)

## CC(C)(O)C(=O)c1ccc(-c2ccc(CC[C@](C)(C(=O)NO)S(C)(=O)=O)cc2)cc1 [Example 217]
[1]; [7]
  PA-7 MIC: 4 mg/L
[2]; [8]
  IC50: 0.278 nM
[3]; [9]
  AB-3167 MIC: ≧64 mg/L
[4]
  KP-3700 MIC: 4 mg/L
[5]; Escherichia coli EC-1
  EC-1 MIC: 0.5 mg/L

## CC(CCc1ccc(-c2ccc(CCO)cc2)cc1)(C(=O)NO)S(C)(=O)=O (centres unmarked) [Example 34]
[1]; [10]
  PA-7 MIC: 4 mg/L
[2]; [8]
  IC50: 0.331 nM
[3]; [11]
  AB-3167 MIC: ≧64 mg/L
[4]
  KP-3700 MIC: 8 mg/L
[5]; [12]
  EC-1 MIC: 4 mg/L

## CC(=O)c1ccc(-c2ccc(CC[C@](C)(C(=O)NO)S(C)(=O)=O)cc2)cn1 [Example 190]
[1]; [10]
  PA-7 MIC: 2 mg/L
[2]; [8]
  IC50: 0.246 nM
[3]; [11]
  AB-3167 MIC: ≧64 mg/L
[4]
  KP-3700 MIC: 4 mg/L
[5]; [12]
  EC-1 MIC: 4 mg/L

## CC(CCc1ccc(OCc2nc(-c3cccnc3)no2)cc1)(C(=O)NO)S(C)(=O)=O (centres unmarked) [Example 305, N-hydroxy-2-methyl-2-(methylsulfonyl)-4-{4-[(3-pyridin-3-yl-1,2,4-oxadiazol-5-yl)methoxy]phenyl}butanamide]
[1]; Table 3, read-out: PA-7 MIC
  MIC: 32 µg/mL (≈ 71.7 µM)
[2]; [6]
  IC50: 7.53 nM
[3]; Table 3, read-out: AB-3167 MIC
  MIC: ≥ 64 µg/mL
[4]
  KP-3700 MIC: ≧64 mg/L
[5]; read-out: EC-1 MIC
  MIC: 32 µg/mL (≈ 71.7 µM)

## CC(CCc1ccc(-c2ccsc2)cc1)(C(=O)NO)S(C)(=O)=O (centres unmarked) [Example 77]
[1]; [10]
  PA-7 MIC: 2 mg/L
[2]; [8]
  IC50: 0.991 nM
[3]; [11]
  AB-3167 MIC: ≧64 mg/L
[4]
  KP-3700 MIC: 16 mg/L
[5]; [12]
  EC-1 MIC: 8 mg/L

## CC(=O)c1ccc(-c2ccc(CC[C@](C)(C(=O)NO)S(C)(=O)=O)cc2)cc1 [Example 182]
[1]; [10]
  PA-7 MIC: 0.5 mg/L
[2]; [8]
  IC50: 0.0674 nM
[3]; [11]
  AB-3167 MIC: 16 mg/L
[4]
  KP-3700 MIC: 1 mg/L
[5]; [12]
  EC-1 MIC: 0.5 mg/L

## C[C@@](CCc1ccc(-c2ccc(OCCCN3CCOCC3)cc2)cc1)(C(=O)NO)S(C)(=O)=O [Example 179]
[1]; [10]
  PA-7 MIC: 2 mg/L
[2]; [8]
  IC50: 0.172 nM
[3]; [11]
  AB-3167 MIC: 2 mg/L
[4]
  KP-3700 MIC: 2 mg/L
[5]; [12]
  EC-1 MIC: 0.125 mg/L

## CC(=O)Nc1ccc(-c2ccc(CCC(C)(C(=O)NO)S(C)(=O)=O)cc2F)cc1 (centres unmarked) [Example 207]
[1]; [7]
  PA-7 MIC: 16 mg/L
[2]; [8]
  IC50: 7.09 nM
[3]; [9]
  AB-3167 MIC: ≧64 mg/L
[4]
  KP-3700 MIC: ≧64 mg/L
[5]; Escherichia coli EC-1
  EC-1 MIC: 32 mg/L

## Cc1ccc(F)c(-c2noc(COc3ccc(CCC(C)(C(=O)NO)S(C)(=O)=O)cc3)n2)c1 (centres unmarked) [Example 291, 4-(4-{[3-(2-fluoro-5-methylphenyl)-1,2,4-oxadiazol-5-yl]methoxy}phenyl)-N-hydroxy-2-methyl-2-(methylsulfonyl)butanamide]
[1]; Table 3, read-out: PA-7 MIC
  MIC: ≥ 64 µg/mL
[2]; [6]
  IC50: 9.27 nM
[3]; Table 3, read-out: AB-3167 MIC
  MIC: ≥ 64 µg/mL
[4]
  KP-3700 MIC: ≧64 mg/L
[5]; read-out: EC-1 MIC
  MIC: 16 µg/mL (≈ 33.5 µM)

## C[C@@](CCc1ccc(-c2ccc(OCCN3CCOCC3)cc2)cc1)(C(=O)NO)S(C)(=O)=O [Example 172]
[1]; [10]
  PA-7 MIC: 4 mg/L
[2]; [8]
  IC50: 0.512 nM
[3]; [11]
  AB-3167 MIC: ≧64 mg/L
[4]
  KP-3700 MIC: 4 mg/L
[5]; [12]
  EC-1 MIC: 0.5 mg/L

## CC(CCc1ccc(-c2ccc(OCCO)cc2)cc1)(C(=O)NO)S(C)(=O)=O (centres unmarked) [Example 113]
[1]; [10]
  PA-7 MIC: 1 mg/L
[2]; [8]
  IC50: 0.148 nM
[3]; [11]
  AB-3167 MIC: ≧64 mg/L
[4]
  KP-3700 MIC: 8 mg/L
[5]; [12]
  EC-1 MIC: 2 mg/L

From US8853258B2, “C-linked hydroxamic acid derivatives useful as antibacterial agents” (Pfizer Inc., priority 2009, dated 2014)
